Test [1] has as its target T1, Heme oxygenase 1 (Homo sapiens) (UniProt P09601).
T1 sequence (whole entry): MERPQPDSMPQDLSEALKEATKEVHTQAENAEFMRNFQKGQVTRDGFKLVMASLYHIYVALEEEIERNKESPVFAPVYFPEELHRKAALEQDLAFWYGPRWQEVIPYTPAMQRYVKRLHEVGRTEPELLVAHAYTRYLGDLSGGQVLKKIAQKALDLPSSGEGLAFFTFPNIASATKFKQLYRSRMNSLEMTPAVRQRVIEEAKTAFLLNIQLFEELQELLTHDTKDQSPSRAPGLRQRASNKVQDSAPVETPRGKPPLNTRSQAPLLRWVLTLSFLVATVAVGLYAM
The experiment in a line: Residual activity of human recombinant HO1 expressed in Escherichia coli DH5alpha assessed as remaining heme at 25 uM by spectrophotometry in absence of L-ascorbic acid relative to control.

Test [2] has as its target T1, Heme oxygenase 1 (Homo sapiens). The test is described as follows: Residual activity of human recombinant HO1 expressed in Escherichia coli DH5alpha assessed as remaining heme at 50 uM by spectrophotometry in absence of L-ascorbic acid relative to control.
Test [3] has the same target. The test is described as follows: Inhibition of human recombinant HO1 expressed in Escherichia coli DH5alpha assessed as heme degradation at 25 uM by spectrophotometry in presence of L-ascorbic acid relative to control. Also on record: scale not given: the % may be the effect or the level left.
Test [4] shares this target. The experiment in a line: Inhibition of human recombinant HO1 expressed in Escherichia coli DH5alpha assessed as heme degradation at 10 uM by spectrophotometry in presence of L-ascorbic acid relative to control.

SMILES strings stand for the structures.

As to `O=C(Cn1ccnc1)C12CC3CC(CC(C3)C1)C2`, the residual activity in test [1] worked out at 44%; in test [2], 54%.
With `Clc1ccc(CCC2(Cn3ccnc3)OCCO2)cc1`, the Activity in test [3] was determined as 15%. Moreover, the results for the residual activity in test [1] and in test [2] were 65% and 80%, respectively. Moreover, the inhibition in test [4] worked out at 39%.

Source of the values: ChEMBL document CHEMBL1140121, “X-ray crystal structure of human heme oxygenase-1 in complex with 1-(adamantan-1-yl)-2-(1H-imidazol-1-yl)ethanone: a common binding mode for imidazole-based heme oxygenase-1 inhibitors” (J Med Chem, 2008).
